Source: US20260274835A1, “A3 ADENOSINE RECEPTOR POSITIVE ALLOSTERIC MODULATORS” (The Medical College of Wisconsin, Inc., priority 2022, published 2026)

Target: T1, WT hA3ARs (Homo sapiens, UniProt P0DMS8)
T1 construct: The full-length mouse (as previously described^25), human (purchased from the cDNA Resource Center), and human/mouse chimeric
T1 sequence (P0DMS8 1-318): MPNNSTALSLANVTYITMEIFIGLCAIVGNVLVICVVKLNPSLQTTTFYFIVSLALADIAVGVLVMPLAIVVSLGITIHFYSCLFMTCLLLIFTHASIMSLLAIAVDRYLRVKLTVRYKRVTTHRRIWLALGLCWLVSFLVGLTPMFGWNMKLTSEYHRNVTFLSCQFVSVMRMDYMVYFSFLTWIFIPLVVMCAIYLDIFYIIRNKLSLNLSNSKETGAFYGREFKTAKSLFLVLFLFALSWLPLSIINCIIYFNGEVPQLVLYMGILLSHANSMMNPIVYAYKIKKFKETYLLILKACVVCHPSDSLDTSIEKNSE
Experiment: [35S]GTPγS binding assay, Cl-IB-MECA concentration-response with modulator, HEK293 cell membranes
Format: biochemical
Conditions: for Emax (%): PAM derivative 1.0 μM, [35S]GTPγS binding induced by Cl-IB-MECA, WT hA3ARs, mean ± SEM, n = 3; for Emax (%) / IC50 ratio: Table 3; for IC50 ratio: ratio of IC50 values for Cl-IB-MECA, DMSO control compared to 100 nM PAM derivative
Description: Creation of stable HEK293 cell lines expressing wild-type and human/mouse chimeric A3ARs: The full-length mouse (as previously described^25), human (purchased from the cDNA Resource Center), and human/mouse chimeric (custom synthesized by TOP Gene Technologies, St. Laurent, Quebec) A3AR cDNAs were subcloned into pcDNA3.1. The constructs were transfected into HEK293 cells (American Type Culture Collection, Manassas, VA) using Lipofectamine 2000 reagent (Invitrogen, Waltham, MA) and selected with 2 mg/ml of G418 in cell culture media (DMEM with 10% fetal bovine serum, 100 units/ml penicillin, and 100 μg/ml streptomycin). Cell lines derived from individual clones were maintained in cell culture media containing 0.6 mg/ml G418.
Membrane preparations: Transfected HEK293 cells were washed with PBS followed by homogenization in Buffer A containing 10 mM Na+-HEPES, 10 mM EDTA, 1 mM benzamidine (pH 7.4) and centrifugation at 27,000×g for 30 min at 4° C. Cell pellets were subsequently re-homogenized in HE buffer containing 10 mM Na+-HEPES, 1 mM EDTA, 1 mM benzamidine (pH 7.4) and re-centrifuged. The supernatant was discarded, and cell pellets were resuspended in HE buffer containing 10% sucrose and stored at −20° C.
[^35S]GTPγS binding assays: Cell membranes (5 μg protein) isolated from transfected HEK293 cells were pre-treated with modulators for one hour in 100 μl GTPγS binding buffer (50 mM Tris HCL [pH 7.4], 1 mM EGTA, 10 mM MgCl2, 100 mM NaCl, 0.004% CHAPS, and 0.5% BSA) in a 96-well large-volume polypropylene assay plate. In all assays, ZM-241385 (300 nM) and PSB-603 (300 nM) were included to block A2BARs expressed endogenously in HEK293 cells. Adenosine deaminase (ADA) (1 μl/ml) was also included to degrade any endogenous adenosine that might be produced during the assay, except when adenosine was used as the orthosteric agonist. The reactions were initiated by the addition of ~0.2 nM [^35S]GTPγS and agonist in 100 μl GTPγS binding buffer and allowed to incubate for two hours at room temperature. At the end of the two-hour incubation period, the membranes were harvested by rapid filtration through Whatman GF/B filters that had been pre-soaked for two hours in GTPγS binding buffer containing 0.02% CHAPS using a 96-well cell harvester (Brandel, Gaithersburg, MD). Radioactivity trapped in the filters was measured by liquid scintillation counting. Non-specific binding of [^35S]GTPγS was determined in the presence of 10 μM unlabeled GTPγS.
Data Analysis: EMax and EC50 values were calculated from data obtained from agonist concentration-response curves according to: E=([…])/(EC50+x), in which x is the agonist concentration. All values were statistically compared using a two-tailed unpaired Student's t-test or two-tailed paired Student's t-test, as indicated. For dissociation binding assays, fit to a one-phase exponential decay model: Y=(Y0−NS)^(−kxt), in which Y0 is specific binding at time 0, k is the dissociation rate constant, and t is the elapsed time. All values are presented as the mean±SEM. A p value <0.05 was considered statistically significant.
The two series of modulators were evaluated in a [^35S]GTPγS binding assay using isolated HEK293 cell membranes expressing the h A3AR, which detects receptor-induced G protein activation. For these studies, concentration-response curves with the orthosteric agonist Cl-IB-MECA were assessed in the presence of vehicle or 0.1, 1, or 10 μM modulator compound.

[1] = increasing concentrations of modulator (0.1, 1, 10 μM)

SMILES	Emax (%)	IC50 ratio	effect on EC50 (potency) of agonist Cl-IB-MECA, in words [1]	effect on Emax (efficacy) of agonist Cl-IB-MECA, in words [1]
Cn1c(C2CCCCC2)nc2c(Nc3ccc(Cl)c(Cl)c3)nc3ccccc3c21 [35 (MRS8206)]	177.8 ± 11.5%	1.12	–	–
OCCn1c(C2CCCCC2)nc2c(Nc3ccc(Cl)c(Cl)c3)nc3ccccc3c21 [36 (MRS8236)]	119.3 ± 6.2%	0.764	–	–
Clc1ccc(Nc2nc3ccccc3c3oc(C4CCCCC4)nc23)cc1Cl [41 (RK005-84-1, BS1002)]	149.9 ± 8.8%	0.406	–	–
Clc1ccc(Nc2nc3ccccc3c3sc(C4CCCCC4)nc23)cc1Cl [42 (RK005-79-1, BS1001)]	192.6 ± 11.2%	0.505	–	–
CN(c1ccc(Cl)c(Cl)c1)c1nc2ccccc2c2[nH]c(C3CCCCC3)nc12 [45 (RK006-100-1, BS1007)]	127.0 ± 6.0%	0.491	–	–
Clc1ccc(Oc2nc3ccccc3c3[nH]c(C4CCCCC4)nc23)cc1Cl [46 (RK007-4-1, BS1006)]	150.6 ± 5.8%	0.738	–	–
Clc1ccc(Sc2nc3ccccc3c3[nH]c(C4CCCCC4)nc23)cc1Cl [47 (RK007-2-1, BS1005)]	137.6 ± 7.3%	1.11	–	–
O=C(Nc1cc(Nc2ccc(Cl)c(Cl)c2)nc2ccccc12)C1CCCCC1 [LUF6096, reference compound]	–	–	without reducing the potency of CI-IB-MECA	produced the greatest increase in efficacy
